According to the NIST ThermoML archive (doi:10.1021/je300590v):

Test: xn = mol fraction of the nth substance listed
Details: Vibrating tube method

N#N [nitrogen] + O=C=O
mass density [kg/m3]
Details | x2 = 0.8785 | x2 = 0.9873
273.15 K, 1001 kPa, Gas | 22.5 | 21.9
273.15 K, 2000 kPa, Gas | 43.7 | –
273.15 K, 2001 kPa, Gas | – | 46
273.15 K, 3001 kPa, Gas | 69.6 | 76.9
273.15 K, 3480 kPa, Gas | – | 98
273.15 K, 3902 kPa, Liquid | – | 911.4
273.15 K, 4000 kPa, Liquid | – | 911.6
273.15 K, 4001 kPa, Gas | 104 | –
273.15 K, 4100 kPa, Gas | 108.6 | –
273.15 K, 5001 kPa, Liquid | – | 922.2
273.15 K, 6000 kPa, Liquid | – | 930.9
273.15 K, 7000 kPa, Liquid | – | 938.7
273.15 K, 8001 kPa, Liquid | – | 946
273.15 K, 8401 kPa, Liquid | 805 | –
273.15 K, 9000 kPa, Liquid | – | 952.8
273.15 K, 9001 kPa, Liquid | 811.5 | –
273.15 K, 10000 kPa, Liquid | – | 959.2
273.15 K, 10001 kPa, Liquid | 824 | –
273.15 K, 11001 kPa, Liquid | – | 965.2
273.15 K, 11003 kPa, Liquid | 836 | –
273.15 K, 12000 kPa, Liquid | 847 | 970.8
273.15 K, 13001 kPa, Liquid | 856.6 | –
273.15 K, 13002 kPa, Liquid | – | 976.3
273.15 K, 14000 kPa, Liquid | 865.1 | –
273.15 K, 14001 kPa, Liquid | – | 981.5
273.15 K, 15001 kPa, Liquid | – | 986.6
273.15 K, 15002 kPa, Liquid | 873.4 | –
273.15 K, 16000 kPa, Liquid | – | 991.4
273.15 K, 16001 kPa, Liquid | 880.8 | –
273.15 K, 17000 kPa, Liquid | 887.8 | –
273.15 K, 17002 kPa, Liquid | – | 996.1
273.15 K, 18000 kPa, Liquid | 894.6 | –
273.15 K, 18012 kPa, Liquid | – | 1000.6
273.15 K, 19001 kPa, Liquid | 900.7 | –
273.15 K, 19011 kPa, Liquid | – | 1004.8
273.15 K, 20000 kPa, Liquid | 906.6 | –
273.15 K, 20001 kPa, Liquid | – | 1008.7
283.15 K, 1000 kPa, Gas | – | 20.1
283.15 K, 1004 kPa, Gas | 19.4 | –
283.15 K, 2000 kPa, Gas | – | 42.5
283.15 K, 2001 kPa, Gas | 40.3 | –
283.15 K, 3000 kPa, Gas | 64.6 | 69.8
283.15 K, 4000 kPa, Gas | – | 106.2
283.15 K, 4001 kPa, Gas | 93.7 | –
283.15 K, 4500 kPa, Gas | – | 131.6
283.15 K, 5001 kPa, Gas | 131.6 | –
283.15 K, 5101 kPa, Liquid | – | 841.4
283.15 K, 5600 kPa, Gas | 170.5 | –
283.15 K, 6001 kPa, Liquid | – | 857.5
283.15 K, 7000 kPa, Liquid | – | 870.7
283.15 K, 8000 kPa, Liquid | – | 882.2
283.15 K, 9001 kPa, Liquid | 708.8 | 892.5
283.15 K, 10001 kPa, Liquid | – | 901.7
283.15 K, 10002 kPa, Liquid | 736.1 | –
283.15 K, 11001 kPa, Liquid | 757.6 | 910.2
283.15 K, 12000 kPa, Liquid | 775.3 | –
283.15 K, 12001 kPa, Liquid | – | 918
283.15 K, 13000 kPa, Liquid | – | 925.4
283.15 K, 13002 kPa, Liquid | 790.5 | –
283.15 K, 14000 kPa, Liquid | – | 932.2
283.15 K, 14001 kPa, Liquid | 803.8 | –
283.15 K, 15001 kPa, Liquid | – | 938.7
283.15 K, 15002 kPa, Liquid | 815.4 | –
283.15 K, 16001 kPa, Liquid | 825.4 | 944.9
283.15 K, 17000 kPa, Liquid | 835 | –
283.15 K, 17001 kPa, Liquid | – | 950.9
283.15 K, 18000 kPa, Liquid | 843.9 | –
283.15 K, 18003 kPa, Liquid | – | 956.5
283.15 K, 19001 kPa, Liquid | 852.1 | –
283.15 K, 19002 kPa, Liquid | – | 961.9
283.15 K, 20001 kPa, Liquid | 859.6 | 967
293.15 K, 1000 kPa, Gas | – | 18.4
293.15 K, 1001 kPa, Gas | 18.8 | –
293.15 K, 2000 kPa, Gas | 38.4 | 39.5
293.15 K, 3000 kPa, Gas | 60.8 | –
293.15 K, 3001 kPa, Gas | – | 64.3
293.15 K, 4001 kPa, Gas | 86.7 | 94.5
293.15 K, 5000 kPa, Gas | 117.2 | 135.5
293.15 K, 5700 kPa, Gas | – | 180.8
293.15 K, 6000 kPa, Gas | 156.7 | –
293.15 K, 6300 kPa, Liquid | – | 750.2
293.15 K, 7000 kPa, Liquid | – | 775
293.15 K, 7002 kPa, Gas | 213.8 | –
293.15 K, 7601 kPa, Gas | 271.4 | –
293.15 K, 8001 kPa, Liquid | – | 799.6
293.15 K, 9000 kPa, Liquid | – | 818.4
293.15 K, 9401 kPa, Liquid | 526.3 | –
293.15 K, 10000 kPa, Liquid | – | 833.7
293.15 K, 10001 kPa, Liquid | 579.5 | –
293.15 K, 11001 kPa, Liquid | 633.1 | –
293.15 K, 11002 kPa, Liquid | – | 846.8
293.15 K, 12001 kPa, Liquid | – | 858.3
293.15 K, 12002 kPa, Liquid | 669.7 | –
293.15 K, 13000 kPa, Liquid | 696.3 | 868.3
293.15 K, 14000 kPa, Liquid | – | 877.6
293.15 K, 14001 kPa, Liquid | 718.1 | –
293.15 K, 15001 kPa, Liquid | 736.4 | 886.2
293.15 K, 16001 kPa, Liquid | 752.3 | –
293.15 K, 16002 kPa, Liquid | – | 894.2
293.15 K, 17000 kPa, Liquid | 766.2 | –
293.15 K, 17001 kPa, Liquid | – | 901.7
293.15 K, 18000 kPa, Liquid | 778.4 | –
293.15 K, 18001 kPa, Liquid | – | 908.6
293.15 K, 19001 kPa, Liquid | 789.6 | 915.2
293.15 K, 20000 kPa, Liquid | 799.8 | –
293.15 K, 20001 kPa, Liquid | – | 921.4
